Test results as given in patent publication US10131652B2, “Pyrimidinyloxy benzene derivatives as herbicides” (E. I. DU PONT DE NEMOURS AND COMPANY, priority 2014, dated 2018).
Read-outs that look alike come from different tables or passages of the source.

Tests used:
Assay in all cases: Test E pre-/postemergence plant response
Format in all cases: in vivo
[1] = system: blackgrass (Alopecurus myosuroides); conditions: scale 0 to 100, read-out: Plant response rating, Blackgrass; for pest or weed control at 16 g/ha: 16 g ai/ha; for pest or weed control at 31 g/ha: 31 g ai/ha; for pest or weed control at 62 g/ha: 62 g ai/ha; for pest or weed control at 125 g/ha: 125 g ai/ha
Outline: (§1)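 Visual scores on a 0–100 scale (100 = complete control) were assigned against untreated controls 7–21 days after treatment in a controlled environment. Compounds, formulated with solvent plus surfactant, were applied to pre-emergence silt-loam sowings or to 1- to 4-leaf plants (2–18 cm) in potting medium.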

[2] = system: bluegrass (annual bluegrass, Poa annua); conditions: scale 0 to 100, read-out: Plant response rating, Bluegrass; for pest or weed control at 16 g/ha: 16 g ai/ha; for pest or weed control at 31 g/ha: 31 g ai/ha; for pest or weed control at 62 g/ha: 62 g ai/ha; for pest or weed control at 125 g/ha: 125 g ai/ha
Outline: as §1

[3] = system: chamomile (scentless chamomile, Matricaria inodora); conditions: Tripleurospermum inodorum, scale 0 to 100, read-out: Plant response rating, Chamomile; for pest or weed control at 16 g/ha: 16 g ai/ha; for pest or weed control at 31 g/ha: 31 g ai/ha; for pest or weed control at 62 g/ha: 62 g ai/ha; for pest or weed control at 125 g/ha: 125 g ai/ha
Outline: as §1

[4] = system: deadnettle (henbit deadnettle, Lamium amplexicaule); conditions: scale 0 to 100, read-out: Plant response rating, Deadnettle; for pest or weed control at 16 g/ha: 16 g ai/ha; for pest or weed control at 31 g/ha: 31 g ai/ha; for pest or weed control at 62 g/ha: 62 g ai/ha; for pest or weed control at 125 g/ha: 125 g ai/ha
Outline: as §1

[5] = system: downy bromegrass (Bromus tectorum); conditions: scale 0 to 100, read-out: Plant response rating, Bromegrass, Downy; for pest or weed control at 16 g/ha: 16 g ai/ha; for pest or weed control at 31 g/ha: 31 g ai/ha; for pest or weed control at 62 g/ha: 62 g ai/ha; for pest or weed control at 125 g/ha: 125 g ai/ha
Outline: as §1

[6] = system: galium (catchweed bedstraw, Galium aparine); conditions: scale 0 to 100, read-out: Plant response rating, Galium; for pest or weed control at 16 g/ha: 16 g ai/ha; for pest or weed control at 31 g/ha: 31 g ai/ha; for pest or weed control at 62 g/ha: 62 g ai/ha; for pest or weed control at 125 g/ha: 125 g ai/ha
Outline: as §1

[7] = system: lambsquarters (Chenopodium album); conditions: scale 0 to 100, read-out: Plant response rating, Lambsquarters; for pest or weed control at 16 g/ha: 16 g ai/ha; for pest or weed control at 31 g/ha: 31 g ai/ha; for pest or weed control at 62 g/ha: 62 g ai/ha; for pest or weed control at 125 g/ha: 125 g ai/ha
Outline: as §1

[8] = system: winter barley (Hordeum vulgare); conditions: scale 0 to 100, read-out: Plant response rating, Barley, Winter; for plant injury at 16 g/ha: 16 g ai/ha; for plant injury at 31 g/ha: 31 g ai/ha; for plant injury at 62 g/ha: 62 g ai/ha; for plant injury at 125 g/ha: 125 g ai/ha
Outline: as §1

FC(F)c1cc(-c2ccccc2Oc2ncc(Br)cn2)no1 [Compound 62, 5-bromo-2-[2-[5-(difluoromethyl)-3-isoxazolyl]phenoxy]pyrimidine]
35%: pest or weed control at 31 g/ha ([2]; post-emergence, Postemergence) | pest or weed control at 16 g/ha ([4]; post-emergence, Postemergence) | pest or weed control at 31 g/ha ([4]; post-emergence, Postemergence) | pest or weed control at 16 g/ha ([7]; pre-emergence, Preemergence) | plant injury at 125 g/ha ([8]; post-emergence, Postemergence)
15%: pest or weed control at 16 g/ha ([1]; post-emergence, Postemergence) | pest or weed control at 31 g/ha ([1]; pre-emergence, Preemergence) | pest or weed control at 62 g/ha ([1]; pre-emergence, Preemergence) | pest or weed control at 16 g/ha ([4]; pre-emergence, Preemergence) | pest or weed control at 31 g/ha ([5]; post-emergence, Postemergence)
95%: pest or weed control at 31 g/ha ([7]; post-emergence, Postemergence) | pest or weed control at 62 g/ha ([7]; post-emergence, Postemergence) | pest or weed control at 125 g/ha ([7]; post-emergence, Postemergence) | pest or weed control at 62 g/ha ([7]; pre-emergence, Preemergence)
100%: pest or weed control at 125 g/ha ([4]; pre-emergence, Preemergence) | pest or weed control at 125 g/ha ([6]; pre-emergence, Preemergence) | pest or weed control at 125 g/ha ([7]; pre-emergence, Preemergence)
5%: pest or weed control at 16 g/ha ([1]; pre-emergence, Preemergence) | pest or weed control at 31 g/ha ([2]; pre-emergence, Preemergence) | pest or weed control at 31 g/ha ([3]; post-emergence, Postemergence) | pest or weed control at 62 g/ha ([3]; post-emergence, Postemergence) | pest or weed control at 16 g/ha ([6]; pre-emergence, Preemergence) | plant injury at 16 g/ha ([8]; post-emergence, Postemergence) | plant injury at 62 g/ha ([8]; pre-emergence, Preemergence) | plant injury at 125 g/ha ([8]; pre-emergence, Preemergence)
0%: pest or weed control at 16 g/ha ([2]; pre-emergence, Preemergence) | pest or weed control at 16 g/ha ([3]; post-emergence, Postemergence) | pest or weed control at 16 g/ha ([3]; pre-emergence, Preemergence) | pest or weed control at 16 g/ha ([5]; pre-emergence, Preemergence) | pest or weed control at 31 g/ha ([5]; pre-emergence, Preemergence) | plant injury at 16 g/ha ([8]; pre-emergence, Preemergence) | plant injury at 31 g/ha ([8]; pre-emergence, Preemergence)
55%: pest or weed control at 62 g/ha ([2]; post-emergence, Postemergence)
10%: pest or weed control at 16 g/ha ([2]; post-emergence, Postemergence) | pest or weed control at 62 g/ha ([2]; pre-emergence, Preemergence) | pest or weed control at 125 g/ha ([3]; post-emergence, Postemergence) | pest or weed control at 16 g/ha ([5]; post-emergence, Postemergence) | pest or weed control at 62 g/ha ([5]; pre-emergence, Preemergence) | plant injury at 31 g/ha ([8]; post-emergence, Postemergence)
90%: pest or weed control at 125 g/ha ([6]; post-emergence, Postemergence)
75%: pest or weed control at 125 g/ha ([1]; post-emergence, Postemergence) | pest or weed control at 125 g/ha ([2]; pre-emergence, Preemergence) | pest or weed control at 62 g/ha ([6]; post-emergence, Postemergence) | pest or weed control at 16 g/ha ([7]; post-emergence, Postemergence)
60%: pest or weed control at 125 g/ha ([2]; post-emergence, Postemergence) | pest or weed control at 62 g/ha ([3]; pre-emergence, Preemergence) | pest or weed control at 31 g/ha ([6]; pre-emergence, Preemergence)
20%: pest or weed control at 31 g/ha ([4]; pre-emergence, Preemergence) | pest or weed control at 62 g/ha ([5]; post-emergence, Postemergence) | pest or weed control at 125 g/ha ([5]; pre-emergence, Preemergence) | plant injury at 62 g/ha ([8]; post-emergence, Postemergence)
65%: pest or weed control at 125 g/ha ([1]; pre-emergence, Preemergence) | pest or weed control at 31 g/ha ([3]; pre-emergence, Preemergence) | pest or weed control at 125 g/ha ([3]; pre-emergence, Preemergence) | pest or weed control at 62 g/ha ([4]; post-emergence, Postemergence) | pest or weed control at 62 g/ha ([6]; pre-emergence, Preemergence)
70%: pest or weed control at 125 g/ha ([4]; post-emergence, Postemergence) | pest or weed control at 16 g/ha ([6]; post-emergence, Postemergence) | pest or weed control at 31 g/ha ([6]; post-emergence, Postemergence)
85%: pest or weed control at 31 g/ha ([7]; pre-emergence, Preemergence)
40%: pest or weed control at 62 g/ha ([1]; post-emergence, Postemergence) | pest or weed control at 62 g/ha ([4]; pre-emergence, Preemergence) | pest or weed control at 125 g/ha ([5]; post-emergence, Postemergence)
30%: pest or weed control at 31 g/ha ([1]; post-emergence, Postemergence)
